Experimental data taken from PMC12173503, “Enterohaemorrhagic Escherichia coli AdhE spirosome length correlates with enzymatic directionality and is perturbed by salicylidene acylhydrazides” (Open Biology, 2025).

Assays:
AdhE (6-His-AdhE) [1] = target: T1, AdhE (6-His-AdhE) (Escherichia coli, UniProt P0A9Q7); experiment: NADH consumption at […] nm; format: biochemical; set-up: full-length AdhE, N-terminal 6-His tag kept, pET28a, expressed in E. coli BL21(DE3); spirosome oligomers, SEC fractions F12 (long) and F24 (short); conditions: forward reaction; 200 μM acetyl-CoA, 250 μM NADH, 20 μM FeSO4, 250 mM NaCl, 50 mM Tris-HCl pH 8.0, 37 °C
T1 sequence (P0A9Q7 whole entry): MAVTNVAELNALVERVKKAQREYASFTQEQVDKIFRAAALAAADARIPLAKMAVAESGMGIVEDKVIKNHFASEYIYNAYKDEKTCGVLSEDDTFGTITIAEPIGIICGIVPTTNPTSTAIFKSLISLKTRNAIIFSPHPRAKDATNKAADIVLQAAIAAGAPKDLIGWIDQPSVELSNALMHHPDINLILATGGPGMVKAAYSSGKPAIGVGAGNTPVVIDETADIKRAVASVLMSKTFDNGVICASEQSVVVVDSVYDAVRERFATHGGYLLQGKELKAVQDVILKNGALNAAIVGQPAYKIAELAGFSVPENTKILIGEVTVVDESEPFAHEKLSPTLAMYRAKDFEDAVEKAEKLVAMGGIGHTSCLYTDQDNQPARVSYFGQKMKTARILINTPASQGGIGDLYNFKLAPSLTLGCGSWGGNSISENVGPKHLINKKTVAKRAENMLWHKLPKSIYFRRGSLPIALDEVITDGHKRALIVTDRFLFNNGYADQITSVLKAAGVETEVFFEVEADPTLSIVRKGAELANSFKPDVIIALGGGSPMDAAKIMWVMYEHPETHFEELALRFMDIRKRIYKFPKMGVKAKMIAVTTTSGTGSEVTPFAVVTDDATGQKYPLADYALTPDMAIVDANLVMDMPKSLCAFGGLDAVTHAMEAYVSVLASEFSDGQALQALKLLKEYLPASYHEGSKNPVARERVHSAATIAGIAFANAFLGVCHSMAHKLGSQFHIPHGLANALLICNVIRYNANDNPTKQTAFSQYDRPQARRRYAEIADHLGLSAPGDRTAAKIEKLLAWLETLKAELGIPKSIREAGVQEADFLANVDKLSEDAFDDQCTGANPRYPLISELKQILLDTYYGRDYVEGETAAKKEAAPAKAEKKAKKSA

AdhE (6-His-AdhE) [2] = target: T1, AdhE (6-His-AdhE); conditions: reverse reaction; 200 mM ethanol, 500 μM NAD+, 200 μM CoASH, 20 μM FeSO4, 250 mM NaCl, 50 mM Tris-HCl pH 8.0, 37 °C

Structure (SMILES) | NADH consumption at 340 nm (AdhE (6-His-AdhE) [1]) | NADH production at 340 nm (AdhE (6-His-AdhE) [2])
CC(=O)SCCNC(=O)CCNC(=O)[C@H](O)C(C)(C)COP(=O)(O)OP(=O)(O)OC[C@H]1O[C@@H](n2cnc3c(N)ncnc32)[C@H](O)[C@@H]1OP(=O)(O)O [acetyl-CoA] | F12 or F24 was incubated with acetyl-CoA in the presence of NADH | 
CCO [ethanol] |  | F12 or F24 was incubated with ethanol, NAD^+ and CoASH
